From patent publication US8613931B2, “Compounds for treating beta-amyloidoses” (Affiris AG, priority 2008, dated 2013)
Square brackets hold non-standard residues; d marks the D form. Ends that are not written are not given here. pGlu = O=C1CC[C@@H](C(=O)O)N1

Tests used:
[1] = test system: p4373; assay: Mimotope vaccination, serum reactivity against p4373; assay type: in vivo, C57/bl6 mice; settings: sera of mice s.c. immunized with 30 μg peptide coupled to KLH, alum
Experimental: (§1) Inhibiting as well as non-inhibiting peptides were coupled to KLH and injected into mice (wildtype C57/Bl6 mice; subcutaneous injection into the flank) together with an appropriate adjuvant (aluminium hydroxide). Animals were vaccinated 3-6 times in biweekly intervals and sera were taken biweekly as well. Titers to injected peptides, as well as to an irrelevant peptide were determined with every serum. Furthermore, titers against the recombinant human Aβ protein, and against original peptides were determined respectively. In general sera were analysed by reaction against peptides coupled to Bovine Serum Albumin (BSA) and recombinant full length proteins which were immobilised on ELISA plates. Titers were determined using anti mouse IgG specific antibodies. For detailed results see FIGS. 6, 7 and 8 respectively.
(§2) Female C57/bl6 mice, 5-6 mice per group, were subcutaneously immunized with 30 μg peptide coupled to KLH. Control groups were administered original epitope-KLH conjugates respectively. As adjuvant alum was used (always 1 mg per mouse). […] The in vitro ELISA assay to determine the antibody titer was performed with sera of single mice after each vaccination in a two week interval (see FIGS. 6 and 7 respectively). The wells of the ELISA plate were coated with mimotope-BSA conjugate and an irrelevant peptide-BSA conjugate (negative control). […]

[2] = test system: monoclonal antibody MV-003; assay: In vitro inhibition assay (ELISA), MV-003 binding to original epitope; set-up: species or system BalbC mice; settings: OD at 10 μg peptide compared to original peptide
Experimental: 2. In vitro inhibition assay (ELISA)
Different amounts of peptides (concentrations ranging from 10 μg to 0.08 μg; serial dilutions), derived from Phage Display were incubated with the monoclonal antibody that was used for the screening procedure. Peptides diminishing subsequent binding of the antibody to the original epitope coated on ELISA plates were considered as inhibiting in this assay.

[3] = test system: Tg2576 AD mouse model; assay: Area occupied by amyloid plaques in Tg2576 mice after mimotope vaccination; assay type: in vivo; settings: Tg2576, 6 s.c. injections at monthly intervals, peptide-KLH conjugate with ALUM
[4] = test system: full length and/or truncated and modified forms of Aβ; assay: In vivo characterisation of mimotopes: detection of Aβ/truncated/modified forms; set-up: species or system C57/bl6 mice; key: +: All peptides listed in Table 5 mount specific immune reactions against full length and/or truncated and modified forms of Aβ or fragments thereof; settings: MV-003 derived mimotopes; mimotope vaccination
Experimental: as §1
Female C57/bl6 mice, 5-6 mice per group, were subcutaneously immunized with 30 μg peptide coupled to KLH. Control groups were administered original epitope-KLH conjugates respectively. As adjuvant alum was used (always 1 mg per mouse). […] The in vitro ELISA assay to determine the antibody titer was performed with sera of single mice after each vaccination in a two week interval (see FIGS. 6 and 7 respectively). The wells of the ELISA plate were coated with mimotope-BSA conjugate and an irrelevant peptide-BSA conjugate (negative control). The positive control was performed by reaction of the parental antibody with the respective mimotope-BSA conjugate. The detection was performed with anti-mouse IgG. Additionally, recombinant proteins were immobilised on ELISA plates and sera reacted accordingly. FIGS. 6 to 8 show representative examples for assays used to characterise mimotopes in vivo.

[5] = test system: monoclonal antibody MV-003; assay: In vitro binding assay (ELISA), parental antibody MV-003; set-up: species or system BalbC mice; settings: peptide-BSA on ELISA plate; OD halfmax, dilution factor 1:X of parental AB MV-003
Experimental: 1. In vitro binding assay (ELISA)
Peptides derived from Phage Display as well as variants thereof were coupled to BSA and bound to ELISA plates (1 μM; as indicated in the respective figures) and subsequently incubated with the monoclonal antibody that was used for the screening procedure to analyse binding capacity of identified peptides.

[6] = test system: p4371; assay: Mimotope vaccination, serum reactivity against p4371; assay type: in vivo, C57/bl6 mice; settings: sera of mice s.c. immunized with 30 μg peptide coupled to KLH, alum
Experimental: as §1, §2

| Substance | Inhibition Capacity [2] | Detection of Aβ/truncated/modified forms [4] | also measured |
| --- | --- | --- | --- |
| EFRHDS-C (EFRHDSC) [p4371] | – | – | immune response against p4373 [1]: mount relevant titers |
| IRWDTPC [p4395] | 1 (Weaker than original epitope (OD of 10 μg peptide below 12 times of original peptide)) | + | average area occupied by amyloid plaques ([3]; mAb 3A5 staining, control group 0.35%): 0.21%; reduction of area occupied by amyloid plaques following mimotope treatment ([3]; versus control group): 38% |
| IRWDTSLC [p4728] | 2 (strong inhibition (as original epitope; OD of 10 μg peptide below 5 times of original peptide)) | – | Binding Capacity [5]: 3 (strong binding :>60000) |
| IRYDMAGC [p4399] | – | + | – |
| IRWDQPC [p4756] | 1 (Weaker than original epitope (OD of 10 μg peptide below 12 times of original peptide)) | – | Binding Capacity [5]: 3 (strong binding :>60000) |
| p(E)FRHDS-C ([pGlu]FRHDSC) [p4373] | – | – | immune response against p4371 [6]: mount relevant titers |
| IRWDGGC [p4793] | 1 (Weaker than original epitope (OD of 10 μg peptide below 12 times of original peptide)) | – | – |
| IRYDAPLC [p4397] | 1 (Weaker than original epitope (OD of 10 μg peptide below 12 times of original peptide)) | + | – |
| IRWDGC [p4792] | 1 (Weaker than original epitope (OD of 10 μg peptide below 12 times of original peptide)) | – | – |
| VRWDVYPC [p4396] | – | + | – |
